Results taken from US4066650A, “Keto-aldehyde-amine addition products and method of making same” (priority 1975, dated 1978).

Key:
Sarcoma-180 = test: Anti-tumor action on subcutaneous Sarcoma-180 in mice; format: in vivo, Swiss albino mice (Charles River CD-1 strain)
Description: On the eleventh day (tumer age 14 days) the test and control mice were sacrificed, the tumor or tumorous area was cut out, weighed and stored in formaldehyde for histological examination. At the same time the liver, kidneys, spleen, heart, and a piece of the small intestine were collected and stored in formaldehyde for histopathological evaluation of the effect of the drugs on these tissues and organs.
The anti-neoplastic action of the drugs was assayed by comparison of the tumor weight present in treated and control animals and expressed as the percent of controls average weight (T/C%). The presence of malignancy in the tumors or tumor-areas of the treated animals was verified by histological examination.
The reabsorption of tissue, formed between the inocculation of the cancer cells and the onset of the treatment is relatively slow. Treated animals even under strong cancerostatic action of the drugs show a small quantity (100-200 mg) of tissue in the area where the tumor cells where deposited. It is therefore difficult to tell the nature of these residual tissues by macroscopic examination. Most of these residual "lumps" are made up of connective tissues and necrotic, scar tissues. If it were regarded as neoplasia without histological examination the T/C% calculation would give an erratic result in the evaluation of the anti-cancer action of the compound. Histological examination of these "lumps" therefore is exceedingly important in order to arrive at a valid evaluation of the effectiveness of the drugs especially in short-term experiments (10 days) as carried out in the present assays.

in vivo = conditions: mouse, in vivo, ip
Description: (§1) The biological effects of methylglyoxal maleimide ("A") and methylglyoxal glutaconic imide ("B") were determined by tests on normal (non-tumorous) and subcutaneous Sarcoma-180 tumor-bearing mice. […] The compounds were administered by intraperitoneal route and the values were calculated by standard methods (Goldin A., in Meth.Can.Res. 4, p. 193, 1968).
(§2) A thirty-day survival test was carried out with normal mice to determine any possible delayed toxicity.
(§3) The test solutions were prepared by dissolving either 38.72 mg of methylglyoxal maleimide ("A") or 5278 mg of methylglyoxal glutaconic imide ("B") in 100 ml of physiological saline. The pH of the solution was adjusted to 6.0, sterilized on Millipore filtration and stored in sterile vials at about 10° C. One […] of such solutions contained 0.387 mg of compound "A" or 52.78 mg of compound "B", respectively and when injected into mice of an average weight of 26 grams the dose was equivalent to 14.884 mg/kg of the compound "A" and 2030 mg/kg of the compound "B".
(§4) Normal, non-tumor-bearing mice of the same strain, sex and weight were also randomized and placed in separate test groups.
(§5) The compositions were injected at different dose levels, each dose being double the next-lower dose, with three test groups (30 mice) for each dose level. The injection was effected intraperitoneally into normal and tumor-bearing mice, starting on the fourth day after the inocculation with cancer, once daily for ten consecutive days. […] A proper number of normal and tumorous mice was treated with saline solution in the same manner, frequency and volume as a control experiment. The body weight change and mortality (acute toxicity) were recorded daily.
(§6) A number of normal animals treated with the drugs in the same manner as the tumorous ones were also sacrificed on the eleventh day, and their organs were collected for histological examination.

[1] = test system: normal (non-tumorous) mice; test: Acute toxicity (mortality), body weight change and 30-day survival in normal mice
Description: as §1, §2, §3, §4, §5, §6

skin graft = test: Skin graft rejection (orthotopic skin heterografts white to gray and gray to white); format: in vivo, Swiss albino mice and C3HStCrl mice; conditions: 3.744 mg/kg i.p. daily, cumulative; for rejection on 31-40 days: g to w line; for rejection on 26-30 days: w to g line
From the text: Skin grafting in mice is well established and this tissue is among the most sensitive indicators of histocompability differences. The retnetion of skin graft between genetically non-related mice is an excellent method of evaluating activity against rejection mechanism. p As the rejection of transplants is associated with antigen formation against the incompatible proteins of the donated tissue, a drug which specifically represses the protein synthesis without affecting the intermediary metabolism of the host is a potential candidate for combatting rejection.
The experiments described here were performed on random-bred Swiss albino mice (white, females, average body weight 26±3 g; Charles River CD-1-strain) and inbred C3HStCrl mice (cinnamon gray, females, average body weight 20±2 grams; Charles River pedigreed breeders from L. C. Strong Foundation) and othotopic skin transplants were made in both ways, that is, white to gray and gray to white.
Standard transplantation technique (R. E. Billingham, W. K. Silvers in Transplantation of tissues and cells, The Wistar Institute Press, Philadelphia, p. 8, 1961) was utilized: From nembutal anesthetized animals 4-6 "pinch"-grafts (full thickness, 3-4 mm in diameter) of the close clipped and sterilized skin were collected from the thorax and immediately transplanted. The grafts were positioned in the "beds" (in place of the pinch-graft) and were held in position by tulle gras (vaseline-impregnatedgauze) and by plaster-of-Paris impregnated bandage around the thorax.
The bandages were removed on the 6-9th day after the transplantation and the future development of the grafts was followed by macroscopical observations.
Positive and negative controls were made simultaneously for skin rejection:
a. Four positive control isografts (white to white, and gray to gray) were made. […] On the 21-28th day the fur-bearing skin had regenerated a completely new crop of hairs indistinguishable from the original population with respect to colors, density and orientation.
b. Four negative control heterografts (white to gray and gray to white) were made without treatment. […] On the 10-12th day after transplantation intravascular thrombies, capillary ruptures, extravasation of blood were the first signs that the grafts were heading for necrosis and rejection which occurred on the 18-25th day.
The heterografts with treatment followed three courses with methylglyoxal-maleimide (at dose level 3.744 mg/kg/animal/day) administered intraperitoneally in a total amount of 1.0 ml/animal/day.
i. Animals were treated for 10 days with the composition before grafts were exchanged and treatment was discontinued on the day of transplantation.
ii. Animals were not treated before the grafts were exchanged but the treatment started on the day of transplantation and continued for 10 days.
iii. Animals were treated for 10 days with the drug before the grafts were exchanged and the treatment schedule was continued for 25 days after the transplantation.

[2] = (ii) post graft treatment for 10 days
[3] = (iii) pretreatment for 10 days and post graft treatment for 25 days

Question: Which ED99 (Sarcoma-180; Mus musculus, Sarcoma-180, ip, 240 h, tumorous mice, i.p. daily for 10 days) does the source give for `CC(=O)C(O)N1C(=O)C=CC1=O` (stereo not drawn) [Methylglyoxal-maleimide, N'-(2-keto-propane-1-ol)-2,5-dioxopyrroline-3-ene] here?
Answer: The ED99 was 1.15 mg/kg.

Question: What about the “IT (therapeutic index LD10/ED90)” value (Sarcoma-180; mice, i.p. daily for 10 days) of the same compound?
Answer: The value was 7.46.

Question: And the ED% (Sarcoma-180; tumorous mice, 0.234 mg/kg i.p. daily for 10 days)?
Answer: The ED% was greater than 0.5%.

Question: What about the ED% (Sarcoma-180; tumorous mice, 0.468 mg/kg i.p. daily for 10 days) of the same compound?
Answer: Its ED% is ~ 1%.

Question: And the ED% (Sarcoma-180; tumorous mice, 0.936 mg/kg i.p. daily for 10 days)?
Answer: The ED% was 60%.

Question: What about the ED% (Sarcoma-180; tumorous mice, 1.872 mg/kg i.p. daily for 10 days) of the same compound?
Answer: Its ED% is 100%.

Question: What about the ED% (Sarcoma-180; tumorous mice, 3.744 mg/kg i.p. daily for 10 days) of the same compound?
Answer: The ED% was 100%.

Question: And the ED% (Sarcoma-180; tumorous mice, 7.488 mg/kg i.p. daily for 10 days)?
Answer: The ED% was 100%.

Question: And the mortality at 240 h (in vivo; 0.234 mg/kg)?
Answer: Its mortality at 240 h is 0%.

Question: And the mortality at 240 h (in vivo; 0.468 mg/kg)?
Answer: The mortality at 240 h was 0%.

Question: And the mortality at 240 h (in vivo; 0.936 mg/kg)?
Answer: The mortality at 240 h was 0%.

Question: And the mortality at 240 h (in vivo; 1.872 mg/kg)?
Answer: The mortality at 240 h was 0%.

Question: And the mortality at 240 h (in vivo; 3.744 mg/kg)?
Answer: The mortality at 240 h was 0%.

Question: And the mortality at 240 h (in vivo; 7.488 mg/kg)?
Answer: Its mortality at 240 h is 0%.

Question: And the mortality at 240 h (in vivo; 14.896 mg/kg)?
Answer: The mortality at 240 h was 100%.

Question: What about the “LD10 (maximum tolerated dose at 10% lethality)” value ([1]; mice, i.p. daily for 10 days) of the same compound?
Answer: Its value is 8.59 mg/kg.

Question: What about the “effect of reduction in the total volume of injection on mortality” value ([1]; mice, i.p., volume below 1.0 ml/animal/day) of the same compound?
Answer: The value was “increase in mortality”.

Question: And the Δ body wt ([1]; normal mice, 0.234 mg/kg i.p. daily for 10 days)?
Answer: Its Δ body wt is “+1.0”.

Question: What about the Δ body wt ([1]; normal mice, 0.468 mg/kg i.p. daily for 10 days) of the same compound?
Answer: Its Δ body wt is “+0.7”.

Question: What about the Δ body wt ([1]; normal mice, 0.936 mg/kg i.p. daily for 10 days) of the same compound?
Answer: Its Δ body wt is “+0.46”.

Question: And the Δ body wt ([1]; normal mice, 1.872 mg/kg i.p. daily for 10 days)?
Answer: Its Δ body wt is “+0.39”.

Question: What about the Δ body wt ([1]; normal mice, 3.744 mg/kg i.p. daily for 10 days) of the same compound?
Answer: The Δ body wt was “+0.1”.

Question: And the Δ body wt ([1]; normal mice, 7.488 mg/kg i.p. daily for 10 days)?
Answer: The Δ body wt was -0.2.

Question: What about the “30 day mortality rate of all treated nontumorous animals (compared with mortality in 10 days)” value ([1]; normal mice, i.p. daily for 10 days, 30 day observation) of the same compound?
Answer: The value was “identical”.

Question: And the “rejection on 31-40 days” value (skin graft; (i) pretreatment for 10 days)?
Answer: Its value is 100%.

Question: What about the “rejection on 26-30 days” value (skin graft; (i) pretreatment for 10 days) of the same compound?
Answer: Its value is 30%.

Question: What about the “rejection on 31-40 days” value (skin graft; [2]) of the same compound?
Answer: The value was 60%.

Question: What about the “rejection on 26-30 days” value (skin graft; [2]) of the same compound?
Answer: Its value is 10%.

Question: And the “rejection on 31-40 days” value (skin graft; [3])?
Answer: The value was 10%.

Question: What about the “rejection on 26-30 days” value (skin graft; [3]) of the same compound?
Answer: Its value is “No rejection”.
